The series can be described thus: Water solubility at 20° C. Type of series: physicochemical. The following applies: in water at 20° C.; calcium salts according to b99.

A word on the solubility: it is the dissolved amount per volume that the medium holds. Take `CCC(C)C(=O)C(=O)O` (stereo not shown) [Keto isoleucine]: the solubility is 24.3 mg/mL.
For the compound `CC(C)CC(=O)C(=O)O` [Keto leucine], the solubility lay in the range of 11.9 to 12.5 mg/mL.
For `CC(C)C(=O)C(=O)O` [Keto valine], the solubility was 65 to 70 mg/mL.
With `CSCCC(O)C(=O)O` (stereo not drawn) [α-hydroxymethionine], the solubility lay in the range of 52 to 63 mg/mL.

Source of the values: patent publication US11642314B2, “Mixtures of branched chain keto acids (BCKA) and method for the production of such mixtures” (Evonik Operations GmbH, priority 2018, dated 2023).
